According to article PMC8315922, “In Vitro Identification and In Vivo Confirmation of Inhibitors for Sweet Potato Chlorotic Stunt Virus RNA Silencing Suppressor, a Viral RNase III” (Journal of Virology, 2021):

How the values were obtained:
[1] = system: SPFMV; details: plants in soil, 10 μM foliar spray twice a week for 1 month, vs water-treated
Description: Compounds were administered by regular foliar spray over 1 month.
Sweetpotato plants cultivar 'Huachano' (accession CIP420065) were side-graft inoculated with both SPFMV (East African strain isolate Nam1) and SPCSV-Ug (East African serotype 2) as described previously ([62]). Plantlets were propagated by taking single-node stems grown in a plant culture medium ([33]). Next, plantlets with newly formed roots were transferred to glass tubes (18 by 150 mm) containing 10 ml of medium supplemented with either 50 μM compound (diluted in DMSO; final DMSO concentration, 0.1%) or only 0.1% DMSO as a control. For plant experiments in soil, plantlets were transferred to pots (6 by 6 by 10 cm) filled with a mixture of sand, humus, and washed soil. After 1 week, plants were treated by foliar spraying using either individual compounds at a single concentration (10 μM) (treatment) or water (control/mock) twice a week for 1 month. All plants were grown at 22°C with 60% humidity and a 16-h light/8-h dark photoperiod for 28 days in culture medium and for 41 days in soil. The Finnish National Plant Phenotyping Infrastructure (NaPPI) was used to monitor plant viral disease symptoms as described in our previous study ([33]). Four compounds were tested with the phenotyping platform in two independent batches, each of which included five biological replicates.
Leaf samples were collected from plants grown in culture medium or soil for 28 or 41 days, respectively, and frozen in liquid nitrogen. Total RNA was extracted using the Spectrum plant total RNA kit (Sigma-Aldrich). First-strand cDNA was synthesized using the Transcriptor first-strand cDNA synthesis kit (Roche, Basel, Switzerland). Gene expression was measured in a final volume of 10 μl (containing 2 μl 10-fold-diluted cDNA, 5 μl SYBR green I master mix [Roche], and 2.5 μM primers) using the LightCycler 480 instrument II (Roche). All RT-qPCR experiments were conducted in triplicate on three and five biological replicates from plants grown in culture medium and soil, respectively. The primer list can be found in our previous study ([33]).
For HTS, the activity of CSR3 was calculated by measuring the change in fluorescence as a function of the reaction time using MARS Data Analysis software (BMG Labtech). To evaluate the CSR3 inhibition efficiency of individual compounds, the PI of each compound was calculated using the slope values for the sample, positive control, and negative control according to the following equation: PI = 100 × [1 − (sample − positive)/(negative − positive)]%. IC50 and DSS values were calculated using concentration-specific PI values according to a previous study ([31]). Relative gene expression was calculated using the classical 2^−ΔΔ^CT method ([63]).

[2] = system: human enzymes or bacterial proteins; set-up: method as in earlier work; details: ref PubChem https://pubchem.ncbi.nlm.nih.gov/compound/7114450#section=Biological-Test-Results; cited from earlier work

Cc1ccc(C2Nc3ccc(C(=O)O)cc3C3C=CCC32)cc1 (stereo not shown) [FIMM031755]
log2 fold change in coat protein expression of SPFMV [1]: −1.33 | activity in inhibitor screens for human enzymes or bacterial proteins [2]: affected the activity of chain B of the human cytokine/receptor binary complex

O=C(O)c1ccc(C2Nc3c(Br)cccc3C3C=CCC32)cc1 (stereo not shown) [FIMM022230]
log2 fold change in coat protein expression of SPFMV [1]: −0.73 | activity in inhibitor screens for human enzymes or bacterial proteins [2]: inactive
